“Also recorded” adds a separate entry of the source.
Experiments:
[1] = tested on: bone marrow mesenchymal cells (BMMC); experiment: Osteoblastic differentiation of BMMC after removal of Gαs (Von Kossa, Alizarin red staining); format: cell-based, mouse; conditions: osteogenic media 7 days
Method: FIG. 13: Removal of Gαs from bone marrow mesenchymal cells (BMMC) promotes osteoblastic differentiation, which is inhibited by Hh antagonist, GANT-58 treatment in a dose-dependent manner. BMMCs were isolated from Gαsflox/flox mice and infected with a Cre-containing adenovirus (ad-Cre) to remove Gαs or GFP-containing adenovirus (Ad-GFP) control. Cells were grown to confluence and placed in osteogenic media for 7 days. […] No effect of GANT-58 observed in Ad-GFP treated cells (panels c and e compared to a).
HO requires an inappropriate increase in bone forming cells (osteoblasts) The role of Gαs in promoting osteoblastic differentiation was tested. Bone marrow mesenchymal cells (BMMC) (also called mesenchymal stem cells) were isolated from Gαs^flox/flox mice. BMMC were isolated by flushing the bone marrow cavity of 6 week old mice and plating cells in Alpha-MEM, 20% FBS, 100 U/mL penicillin, 100 μg/mL streptomycin, 2 mM glutamine. Prior to reaching confluence cells were treated with a Cre- or GFP-containing adenovirus. Upon reaching confluence cells were switched to osteogenic media (DMEM, 10% lot-selected FBS, 100 U/mL penicillin, […] streptomycin, 2 mM glutamine, 10^-4M L-ascorbic acid 2-phosphate and 10 mM α-glycerol phosphate). These cells were infected with a Cre-containing adenovirus to remove Gαs and cultured under conditions that favor osteogenic differentiation. […]

[2] = tested on: Hh pathway activation (Ptch1, Gli1, HIP); experiment: Limb culture of E14.5 limbs with qRT-PCR for markers of Hh pathway activation; format: cell-based; conditions: Prx1-cre+; Gαs^flox/− mouse limbs isolated at E14.5, cultured in vitro 4 days, 5 μM ATO vs vehicle
Method: FIG. 8: ATO inhibits elevated Hh signaling in Prx1-cre+; Gαs^flox/− mouse limbs. Control and Prx1-cre+; Gαs^flox/− mouse limbs were isolated at E14.5 and cultured in vitro for 4 days in the BGJB media containing vehicle or 5 μM ATO. Limbs were then collected, RNA isolated and qRT-PCR was performed for markers of Hh pathway activation (Ptch1, Gli1, HIP). In the absence of ATO, expression of these markers was elevated relative to control (6-fold, 5-fold and 17-fold, respectively).
The formation of HO indicated inappropriate upregulation of a pro-osteogenic pathway (e.g. BMP, Wnt, and/or hedgehog) outside the skeleton. As Gαs is a physiologically important activator of protein kinase A (PKA) and PKA is a potent inhibitor of Hedghehog (Hh) signaling (Jiang, et al., 1995, Cell 80, 563-572), loss of Gαs is likely associated with an upregulation of Hh that was driving HO formation. Accordingly, Hh signaling would be elevated prior to HO formation and overlap in its tissue expression. Quantitative reverse transcriptase polymerase chain reaction (qRT-PCR) was performed on RNA isolated from control and Prx1-cre+; Gαs^flox/− mutant limb tissue at E14.5, prior to HO formation. The following primers were used for qRT-PCR: […]
Relative expression was quantified using the […] method (Livak, et al., 2001, Methods 25, 402-08). […]

[3] = tested on: Prx1-cre+; Gαs^flox/− mice; experiment: HO formation in vivo in Prx1-cre+; Gαs^flox/− pups from treated pregnant females (Alizarin Red-Alcian Blue staining); design: species or system mouse
Method: FIG. 12: ATO inhibits HO formation in Prx1-cre+; Gαs^flox/− mice. Pregnant females were injected with either […] ATO or vehicle at E13.5, E15.5 and E17.5 and embryos were collected at E18.5. An Alizarin Red-Alcian Blue skeletal prep was performed to assay for the presence of HO between the digits.
Embryos were skinned and placed in 100% EtOH overnight to fix. Embryos were then placed in staining solution for 2 days (50 mL staining solution=2.5 mL 0.3% Alcian Blue, 2.5 mL 0.1% Alizarin Red, 2.5 mL 100% glacial acetic acid, 42.5 mL 70% EtOH). Embryos were rinsed with water, then placed in 1% KOH until destained, and finally in 80% glycerol for storage.
Inhibitors of Hh signaling were tested for an ability to inhibit the formation of HO in vivo. Matings were established between Prx1-cre+; Gαs^flox/− male and Gαs^flox/flox female mice. Pregnant females at gestational days E13.5, E15.5 and E17.5 were injected intraperitoneally with 5 mg/kg ATO. Pregnant mice are first weighed and then injected with care so as to avoid injection into uteri. Mice were sacrificed at E18.5, pups were collected, and stained for bone formation by Alizarin Red-Alcian Blue staining. Prx1-cre+; Gαs^flox/− pups from mice injected with vehicle control produced HO as evidenced by enhanced red staining in soft tissues. […]

| Compound | tissue mineralization, Von Kossa staining ([1]; Ad-Cre infected BMMC (Gαs removed)) | effect on mineralization in control cells, Von Kossa staining ([1]; Ad-GFP treated BMMC (control)) | expression of markers of Hh pathway activation (Ptch1, Gli1, HIP) by qRT-PCR [2] | HO in forelimb and hind limb, Alizarin Red-Alcian Blue staining ([3]; pregnant females injected intraperitoneally with 5 mg/kg ATO at E13.5, E15.5 and E17.5, pups collected at E18.5, vs vehicle control) | levels of HO in forelimbs and hind limbs, Alizarin Red-Alcian Blue skeletal prep ([3]; pregnant females injected with 5 μg/kg ATO at E13.5, E15.5 and E17.5, embryos collected at E18.5, relative to vehicle) |
| --- | --- | --- | --- | --- | --- |
| c1cc(-c2sc(-c3ccncc3)c(-c3ccncc3)c2-c2ccncc2)ccn1 [GANT-58] | inhibited by GANT-58 in a dose-dependent manner | No effect |  |  |  |
| arsenic trioxide [ATO] |  |  | dramatic reduction in the Hh pathway activation; also recorded: significantly reduced | significant reduction in HO | reduced levels of HO |
